Experiment: In vitro dissolution test (microcentrifuge, PBS pH 6.5, 37° C., HPLC)
Format: physicochemical
Details: for Drug 1 Concentration: PBS pH 6.5, 290 mOsm/kg, 37° C., 1000 μg/mL if all drug dissolved
Procedure: A sample of the solid amorphous dispersion used in Example 4 was evaluated before and after secondary drying in an in vitro dissolution test to determine the effect of drying on concentration enhancement relative to the crystalline form of Drug 1. As a control, Control 5 consisted of crystalline Drug 1 alone. For this test, a sufficient amount of Dispersion 1 and Control 5 material was added to microcentrifuge test tubes so that the concentration of Drug 1 would have been 1000 μg/mL in both cases if all of the drug had dissolved. The test was performed in duplicate. The tubes were placed in a 37° C. temperature-controlled chamber, and 1.8 mL PBS at pH 6.5 and 290 mOsm/kg was added to each tube. The samples were mixed using a vortex mixer for about 60 seconds. The samples were centrifuged at 13,000 G at 37° C. for 1 minute. The resulting supernatant solution was then sampled and diluted 1:6 (by volume) with methanol and then analyzed by high performance liquid chromatography (HPLC). The contents of each tube were mixed on the vortex mixer and allowed to stand undisturbed at 37° C. until the next sample was taken. Samples were collected at 4, 10, 20, 40, 90, and 1200 minutes.
The concentrations of drug obtained in these samples were used to determine the maximum concentration of drug (MDC90) and the area under the concentration-versus-time curve (AUC90) during the initial ninety minutes.

[1] = PBS pH 6.5, 37° C., initial 90 min

AUC90 (area under the concentration-versus-time curve during the initial ninety minutes) [1]: <88 µg·min/mL
MDC90 (maximum concentration of drug during the initial ninety minutes) [1]: <1 µg/mL
AUC (time 0 min, PBS pH 6.5, 37° C.): 0 µg·min/mL
Drug 1 Concentration (time 0 min): 0 µg/mL
AUC (time 4 min, PBS pH 6.5, 37° C.): <2 µg·min/mL
Drug 1 Concentration (time 4 min): <1 µg/mL
AUC (time 10 min, PBS pH 6.5, 37° C.): <8 µg·min/mL
Drug 1 Concentration (time 10 min): <1 µg/mL
AUC (time 20 min, PBS pH 6.5, 37° C.): <18 µg·min/mL
Drug 1 Concentration (time 20 min): <1 µg/mL
AUC (time 40 min, PBS pH 6.5, 37° C.): <38 µg·min/mL
Drug 1 Concentration (time 40 min): <1 µg/mL
AUC (time 90 min, PBS pH 6.5, 37° C.): <88 µg·min/mL
Drug 1 Concentration (time 90 min): <1 µg/mL
AUC (time 1200 min, PBS pH 6.5, 37° C.): <1,200 min*μg/mL
Drug 1 Concentration (time 1200 min): <1 µg/mL
Compound: CCOC(=O)N1c2ccc(C(F)(F)F)cc2[C@@H](N(Cc2cc(C(F)(F)F)cc(C(F)(F)F)c2)C(=O)OC)C[C@H]1CC [Control 5, [2R,4S]4-[(3,5-bistrifluoromethyl-benzyl)-methoxycarbonyl-amino]-2-ethyl-6-trifluoromethyl-3,4-dihydro-2H-quinoline-1-carboxylic acid ethyl ester]

— patent publication US9265731B2, “Drying of drug-containing particles” (Bend Research, Inc., priority 2005, dated 2016)
